Biological target: GTP-binding protein Rheb (Homo sapiens, UniProt Q15382)
Assay: In Vitro Kinase Assay: For the Rheb-dependent in vitro kinase assay, HA-GST-Rheb was first loaded with GTP-γ-S (Millipore #20-176) by incubating 600 ng/μL Rheb with 10 mM EDTA and 0.4 mM GTP-γ-S at 30° C. for 10 minutes. MgCl2 was added to a final concentration of 20 mM to stop the reaction. This mixture was used at 20× in the kinase assay.Loaded HA-GST-Rheb was then incubated with compound (final DMSO concentration 1%) for 30 minutes at room temperature. mTORC1, GFP-4E-BP1 substrate (Life Technologies #PV4759), and kinase assay buffer (HEPES pH 7.4, KCl, MgCl2) were added to the Rheb-compound mixture and incubated at room temperature for 20 minutes. ATP was then added, and the kinase reaction proceeded at 30° C. for 45 min before being stopped by the addition of SDS-PAGE loading buffer for Westerns or 10 mM EDTA for the LanthaScreen readout. During the kinase reaction, the final concentration of reagents is as follows: Rheb—30 ng/μL, compound—variable, GTPγS—0.02 mM, EDTA—0.5 mM, MgCl2—1 mM, mTORC1—fixed volume of prep (molarity unknown), GFP-4E-BP1 substrate—15 ng/μL, ATP—0.5 mM. For LanthaScreen analysis (Thermo Fisher #PV4757), the manufacturer's instructions were followed and conditions were optimized for the amount of Rheb and mTORC1. The final concentration of reagents was as follows: 100 nM loaded HA-GST-Rheb, compound (variable), 0.5 mM EDTA, 10 mM MgCl2, 25 mM HEPES pH 7.4, 50 mM KCl, mTORC1 (fixed volume—0.1 μL in 10 μL total volume), 0.4 μM GFP-4E-BP1 substrate, 0.5 mM ATP. Results were read on an EnVision reader (PerkinElmer) using 495ex/520em filters (Life Technologies, #PV00315).

Sequence of GTP-binding protein Rheb (Q15382 whole entry): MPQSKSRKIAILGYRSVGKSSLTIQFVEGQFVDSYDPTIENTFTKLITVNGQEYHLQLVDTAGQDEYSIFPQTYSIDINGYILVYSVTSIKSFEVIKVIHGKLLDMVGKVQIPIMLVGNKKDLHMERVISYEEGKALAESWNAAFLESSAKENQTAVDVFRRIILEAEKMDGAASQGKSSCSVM

| IC50 [µM] | Structure (SMILES) |
| --- | --- |
| < 10 | Cc1cc(C(C)(C)C)ccc1Sc1cc(Cl)cc2[nH]c(CO)cc12 |
| < 10 | CN1CCCN(c2ccc(NC(=O)c3cc4c(-c5cc(Cl)cc(Cl)c5)cc(Cl)cc4[nH]3)cc2F)CC1 |
| < 10 | Cc1cc(C(C)(C)C)ccc1Sc1cc(Cl)cc2[nH]c(C(=O)O)cc12 |
| < 10 | OCc1cc2c(Sc3ccc(Cl)cc3Cl)cc(Cl)cc2[nH]1 |
| < 10 | O=C(O)c1cc2c(Sc3ccc(C(F)(F)F)cc3)cc(Cl)cc2[nH]1 |

Reference: ChEMBL document CHEMBL5729117, “Heteroaryl Rheb inhibitors and uses thereof” (2022)
